Source: patent publication US11773092B1, “Pyrido[3,4-b]indol-1-one compounds as antibacterial agents” (KING FAISAL UNIVERSITY, priority 2023, dated 2023)
In brackets after ≈: the same amount, converted by molar mass. Like-named read-outs stand apart in the source and are kept apart here.

Legend:
[1] = system: Staphylococcus epidermidis; experiment: In vitro antibacterial activity (CLSI M07-A10 dilution MIC); assay type: cell-based
Source text: (§1) Staphylococcus epidermidis, Bacillus subtilis, Enterococcus faecium, Enterococcus faecium resistant to VRE, and Gram-negative organisms including Klebsiella pneumonia, Escherichia coli, and Pseudomonas aeruginosa.

[2] = system: Staphylococcus aureus ATCC 29213; experiment: as above; assay type: cell-based; settings: ATCC29213
Source text: as §1

[3] = system: Klebsiella pneumonia MTCC 618; experiment: as above; assay type: cell-based; settings: Klebsiella pneumoniae, MTCC618
Source text: as §1

[4] = system: Enterococcus faecium ATCC 51559 (VRE resistant); experiment: as above; assay type: cell-based
Source text: as §1

[5] = system: Pseudomonas aeruginosa MTCC 741; experiment: as above; assay type: cell-based; settings: MTCC741
Source text: as §1

[6] = system: Enterococcus faecium ATCC 35667; experiment: as above; assay type: cell-based; settings: ATCC35667
Source text: as §1

[7] = system: Escherichia coli MTCC 443; experiment: as above; assay type: cell-based
Source text: as §1

[8] = system: Staphylococcus aureus ATCC BAA-1556 (MERSA resistant); experiment: as above; assay type: cell-based; settings: ATCCBAA1556
Source text: as §1

[9] = system: Bacillus subtilis MTCC 441; experiment: as above; assay type: cell-based; settings: MTCC441
Source text: as §1

[10] = system: Mycobacterium tuberculosis H37Rv strain; experiment: Anti-tubercular alamar blue microplate MIC; assay type: cell-based; settings: 168 h, M. tuberculosis H37Rv, seven days incubation, read-out: anti-mycobacterial activity (MIC)
DNA gyrase from E. coli = biological target: T1, DNA gyrase from E. coli (Escherichia coli, UniProt P0AES4+P0AES6); experiment: Inhibitory activity on E. coli DNA gyrase (Inspiralis assay); assay type: biochemical
T1 construct: purchased Inspiralis
Description: Inhibitory potencies were investigated utilizing the Inspiralis assay on streptavidin-coated 96-well microtiter plates. First, the plates were rehydrated with buffer (20 mM Tris-HCl with pH 7.6, 0.01% w/v BSA, 0.05% v/v Tween 20, 137 mM NaCl) and the biotinylated oligonucleotide was then immobilized. After washing off the unbound oligonucleotide, the enzyme test was performed. […] Reaction solutions were incubated at 37° C. for 30 min. After that, the TF buffer (50 mM NaOAc with pH 5.0, 50 mM NaCl and 50 mM MgCl2) was added to terminate the enzymatic reaction. After additional incubation for 30 min at rt, during which biotinoligonucleotide-plasmid triplex was formed, the unbound plasmid was washed off using TF buffer and SybrGOLD in T10 buffer (10 mM Tris HCl with pH 8.0 and 1 mM EDTA) was added. […] Initial screening was done at 100 or 10 μM concentration of inhibitors. […] GraphPad Prism software was used to calculate the IC50 values. The result is given as the average value of three independent measurements.

[11] = Escherichia coli MTCC 443 + efflux pump inhibitor PAβN (200 μg/mL)

T1 sequence (P0AES4 whole entry, one chain of several): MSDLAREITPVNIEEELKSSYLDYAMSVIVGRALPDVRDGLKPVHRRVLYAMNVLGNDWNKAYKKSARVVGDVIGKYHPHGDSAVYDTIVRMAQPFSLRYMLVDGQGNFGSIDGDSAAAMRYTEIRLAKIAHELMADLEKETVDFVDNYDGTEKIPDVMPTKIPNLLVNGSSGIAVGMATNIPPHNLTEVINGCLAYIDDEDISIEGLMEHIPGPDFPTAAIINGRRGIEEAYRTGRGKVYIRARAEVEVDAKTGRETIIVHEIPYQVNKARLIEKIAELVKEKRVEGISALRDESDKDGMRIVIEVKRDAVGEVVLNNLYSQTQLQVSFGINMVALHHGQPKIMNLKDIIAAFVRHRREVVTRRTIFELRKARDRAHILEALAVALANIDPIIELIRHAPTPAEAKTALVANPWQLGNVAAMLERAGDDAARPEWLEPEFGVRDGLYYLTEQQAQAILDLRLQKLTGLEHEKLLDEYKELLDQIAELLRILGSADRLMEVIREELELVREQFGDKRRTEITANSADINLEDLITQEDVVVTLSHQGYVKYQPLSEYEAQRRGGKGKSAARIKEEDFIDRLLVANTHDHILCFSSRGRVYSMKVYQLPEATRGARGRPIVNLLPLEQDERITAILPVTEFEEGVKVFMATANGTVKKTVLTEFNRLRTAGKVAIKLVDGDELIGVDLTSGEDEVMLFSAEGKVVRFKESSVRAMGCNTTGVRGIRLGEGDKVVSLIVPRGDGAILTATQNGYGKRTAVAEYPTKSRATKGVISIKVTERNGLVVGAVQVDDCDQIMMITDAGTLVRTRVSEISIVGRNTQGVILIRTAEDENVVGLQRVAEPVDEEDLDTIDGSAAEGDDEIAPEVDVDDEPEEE

For `CCCCCN(C)Cc1cc(C(=O)O)ccc1-n1ccc2c([nH]c3c(NC)cc(F)cc32)c1=O` [Compound 6, 4-(6-fluoro-8-(methylamino)-1-oxo-1,9-dihydro-2H-pyrido[3,4-b]indol-2-yl)-3-((methyl(pentyl)amino)methyl)benzoic acid], the MIC ([1]; read-out: MIC) was 0.75 µg/mL (≈ 1.61 µM), the MIC ([2]; Staphylococcus aureus ATCC 29213, read-out: MIC) was 0.75 µg/mL (≈ 1.61 µM) and the MIC ([3]; Klebsiella pneumonia MTCC 618, read-out: MIC) was 1 µg/mL (≈ 2.15 µM). The MIC ([4]; Enterococcus faecium ATCC 51559 (VRE resistant), read-out: MIC) was 0.5 µg/mL (≈ 1.08 µM), the MIC ([5]; Pseudomonas aeruginosa MTCC 741, read-out: MIC) was 0.75 µg/mL (≈ 1.61 µM) and the MIC ([6]; Enterococcus faecium ATCC 35667, read-out: MIC) was 0.5 µg/mL (≈ 1.08 µM). For the same compound, the MIC [7, 11] was 0.5 µg/mL, the MIC ([7]; MTCC443, Escherichia coli MTCC 443, read-out: MIC) was 8 µg/mL (≈ 17.2 µM) and the MIC ([8]; Staphylococcus aureus ATCC BAA-1556 (MERSA resistant), read-out: MIC) was 0.75 µg/mL (≈ 1.61 µM). For the same compound, the MIC ([9]; Bacillus subtilis MTCC 441, read-out: MIC) was 0.5 µg/mL (≈ 1.08 µM), the MIC [10] was 8 µg/mL (≈ 17.2 µM) and the IC50 (DNA gyrase from E. coli) was 0.018 µM.
For `CN[C@H](CC(C)C)C(=O)N[C@H]1C(=O)N[C@@H](CC(N)=O)C(=O)N[C@H]2C(=O)N[C@H]3C(=O)N[C@H](C(=O)N[C@H](C(=O)O)c4cc(O)cc(O)c4-c4cc3ccc4O)[C@H](O)c3ccc(c(Cl)c3)Oc3cc2cc(c3O[C@@H]2O[C@H](CO)[C@@H](O)[C@H](O)[C@H]2O[C@H]2C[C@](C)(N)[C@H](O)[C@H](C)O2)Oc2ccc(cc2Cl)[C@H]1O` [Vancomycin, reference compound], the MIC [1] was 1 µg/mL (≈ 0.69 µM), the MIC ([2]; Staphylococcus aureus) was 1 µg/mL (≈ 0.69 µM) and the MIC [3] was > 128 µg/mL. The MIC ([4]; Enterococcus faecium) was > 128 µg/mL, the MIC ([5]; Pseudomonas aeruginosa) was > 128 µg/mL and the MIC ([6]; Enterococcus faecium) was 0.5 µg/mL (≈ 0.345 µM). For the same compound, the MIC [7, 11] was >128 µg/mL, the MIC ([7]; Escherichia coli, MTCC443) was > 128 µg/mL and the MIC ([8]; Staphylococcus aureus) was 1 µg/mL (≈ 0.69 µM). It also gave an MIC ([9]; Bacillus subtilis) of 0.5 µg/mL (≈ 0.345 µM).
